Results as given in article PMC5484141, “Asperentin B, a New Inhibitor of the Protein Tyrosine Phosphatase 1B” (Marine Drugs, 2017).
≈ marks a conversion by molar mass, not a printed value. Where “and” joins values, the source holds several entries; their conditions need not be identical. Identical values can stand only once. Entries after “also recorded” stand apart in the source; their conditions may differ. Like-named read-outs stand apart in the source and are kept apart here.

Key:
leukemia cell line P388 = test system: leukemia cell line P388; set-up: method as in PMID 17958319; conditions: cited from earlier work
PTP1B [1] = test system: PTP1B; set-up: method as in PMID 25819098; conditions: read-out: IC50 value against PTP1B; cited from earlier work
HepG2 = assay: Cytotoxic activity against HepG2; type: cell-based; conditions: test concentrations up to 50 μM
Description: (§1) Antimicrobial activities of compounds 1 and 2 against Bacillus subtilis DSM 347, Staphylococcus lentus DSM 6672, Propionibacterium acnes, Xanthomonas campestris, and Septoria tritici, as well as the cytotoxic activity against the cell lines HepG3 (hepatocellular carcinoma) and HT29 (colon adenocarcinoma) were assayed as described by Schneemann et al. [27]. The effect on the growth of human pathogenic yeast, Candida albicans DSM 1386, was measured according to Ohlendorf et al. [28]. The activity of compound 2 against the dermatophyte Trichophyton mentagrophytes was tested as described by Nagel et al. [29].

Septoria tritici = assay: Antimicrobial activity against Septoria tritici; type: cell-based
Description: as §1

Propionibacterium acnes = assay: Antimicrobial activity against Propionibacterium acnes; type: cell-based
Description: (§2) Antimicrobial activities of compounds 1 and 2 against Bacillus subtilis DSM 347, Staphylococcus lentus DSM 6672, Propionibacterium acnes, Xanthomonas campestris, and Septoria tritici, as well as the cytotoxic activity against the cell lines HepG3 (hepatocellular carcinoma) and HT29 (colon adenocarcinoma) were assayed as described by Schneemann et al. [27].

[2] = test system: Bacillus subtilis DSM 347; assay: Antimicrobial activity against Bacillus subtilis; type: cell-based; conditions: concentrations of 100 μM (stated for 1)
Description: as §2

[3] = test system: Candida albicans DSM 1386; assay: Growth of human pathogenic yeast Candida albicans; type: cell-based; conditions: concentrations of 100 μM
Description: as §1

[4] = test system: HT29 (colon adenocarcinoma); assay: Cytotoxic activity against HT29; type: cell-based; conditions: test concentrations up to 50 μM (stated for 1)
Description: as §2

[5] = biological target: T1, human recombinant protein tyrosine phosphatase 1B (PTP1B) (Homo sapiens, UniProt P18031); assay: PTP1B inhibition assay with substrate IR5 (Biomol green phosphate detection); type: biochemical
T1 construct: purchased Biomol SE332-0050
T1 sequence (P18031 1-322 limits assumed): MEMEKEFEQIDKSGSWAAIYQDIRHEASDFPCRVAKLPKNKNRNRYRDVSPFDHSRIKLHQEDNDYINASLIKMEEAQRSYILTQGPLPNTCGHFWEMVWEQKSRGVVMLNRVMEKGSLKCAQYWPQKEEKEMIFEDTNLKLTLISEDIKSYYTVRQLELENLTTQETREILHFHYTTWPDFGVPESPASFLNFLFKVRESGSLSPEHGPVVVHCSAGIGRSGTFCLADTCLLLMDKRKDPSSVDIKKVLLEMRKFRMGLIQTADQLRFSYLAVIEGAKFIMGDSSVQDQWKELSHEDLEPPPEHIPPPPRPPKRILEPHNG
Description: The effect of 1 and 2 on human recombinant protein tyrosine phosphatase 1B (PTP1B) was tested in microtiter plates. […] After warming for 10 min to the assay temperature of 30 °C 5 μL of human recombinant PTP1B (Biomol; CatNo. SE332-0050) stock solution (1 ng/μL) were added. The reaction was started with 50 μL of the substrate IR5 (insulin receptor amino acids 1142–1153 with pTyr at position 1146 (Biosyntan, Berlin, Germany) dissolved in PTP1B assay buffer to a concentration of 0.15 mM. The phosphopeptid IR5 comprises the amino acid sequence Thr-Arg-Asp-Ile-p[…]COOH and is part of the autophosphorylation domain of the insulin receptor (IR). After an incubation period of 25 min at 30°C the reaction was stopped by adding 150 μL of Biomol green (Biomol, CatNo. AK111-0250). PTP1B dephosphorylates the IR5 substrate resulting in the release of orthophosphate which was quantified after incubating for 20 min at 620 nm using the microtiter plate reader Infinite M200 (Tecan Group Ltd., Männedorf, Switzerland). […] IC50 values were determined as duplicates.

Xanthomonas campestris = assay: Antimicrobial activity against Xanthomonas campestris; type: cell-based; conditions: concentrations of 100 μM (stated for 1)
Description: as §2

[6] = test system: Staphylococcus lentus DSM 6672; assay: Antimicrobial activity against Staphylococcus lentus; type: cell-based; conditions: concentrations of 100 μM (stated for 1)
Description: as §2

[7] = test system: Trichophyton mentagrophytes; assay: Activity against the dermatophyte Trichophyton mentagrophytes; type: cell-based; conditions: read-out: inhibition of T. mentagrophytes in comparison to the positive control clotrimazole, concentration of 100 μM
Description: as §1

[8] = test system: dermatophytes, including Trichophyton rubrum; set-up: method as in PMID 5169000; conditions: cited from earlier work
Arthrobacter citreus = test system: Arthrobacter citreus; set-up: method as in PMID 646581; conditions: cited from earlier work
Botrytis cinerea = test system: Botrytis cinerea; set-up: method as in PMID 25517217; conditions: cited from earlier work
[9] = test system: etiolated wheat coleoptile; set-up: method as in PMID 8229019; conditions: concentration of 1 mM; cited from earlier work
Bacillus brevis = test system: Bacillus brevis; set-up: method as in PMID 646581; conditions: cited from earlier work
[10] = test system: Colletotrichum gleosporoides; set-up: method as in PMID 25517217; conditions: cited from earlier work
Rhizoctonia solani = test system: Rhizoctonia solani; set-up: method as in PMID 5169000; conditions: cited from earlier work
Sarcina lutea = test system: Sarcina lutea; set-up: method as in PMID 646581; conditions: cited from earlier work
[11] = test system: glycogen synthase kinase GSK-3 β; set-up: method as in PMID 27801816; conditions: cited from earlier work
PTP1B [12] = test system: PTP1B; set-up: method as in earlier work; conditions: substrate p-nitrophenyl phosphate; ref 13 (McCain et al.); read-out: IC50 value against PTP1B; cited from earlier work
Micrococcus flavus = test system: Micrococcus flavus; set-up: method as in PMID 5169000; conditions: cited from earlier work
[13] = set-up: method as in doi:10.1007/s11802-014-2216-2; conditions: cited from earlier work

CC(=O)C(C)c1oc(C)c(C)c(=O)c1C (stereo not shown) [2,3,5-trimethyl-6-(3-oxobutan-2-yl)-4H-pyran-4-one]
cytotoxic effects on P388 (leukemia cell line P388): cytotoxic effects

C/C=C/[C@H]1CC(=O)c2cc(C)c(O)c(C)c2O1 [(2R)-2,3-dihydro-7-hydroxy-6,8-dimethyl-2-[(E)-prop-1-enyl]chromen-4-one]
cytotoxic effects on P388 (leukemia cell line P388): cytotoxic effects

CCCCCCCCCCCCCCCC(=O)C1=C(O)[C@@H](CO)OC1=O [RK-682, (R)-4-Hydroxy-5-(hydroxymethyl)-3-(1-oxohexadecyl)-2(5H)-furanone]
IC50 (PTP1B [1]): 4.5 µM

CC1CCCC(CC2Cc3c(O)c(O)cc(O)c3C(=O)O2)O1 (stereo not shown) [compound 1, Asperentin B]
cytotoxic effects against HepG2 (HepG2): No activities were not found
antibiotic activity against Septoria tritici (in words) (Septoria tritici; concentrations of 100 μM): No antibiotic activity
inhibition at 100 µM (Propionibacterium acnes; Cutibacterium acnes, 100 μM test concentration): 57%
antibiotic activity against Bacillus subtilis [2]: No antibiotic activity; also recorded: did not exhibit
antibiotic activity against Candida albicans [3]: No antibiotic activity
cytotoxic effects against HT29 [4]: did not exhibit cytotoxic activities
IC50 ([5]; in vitro, duplicates, read-out: IC50 value against PTP1B): 2.05 µM and 2 µM
antibiotic activity against Xanthomonas campestris (Xanthomonas campestris): No antibiotic activity; also recorded: did not exhibit
antibiotic activity against Staphylococcus lentus [6]: No antibiotic activity; also recorded: did not exhibit

C[C@H]1CCC[C@H](C[C@H]2Cc3cc(O)cc(O)c3C(=O)O2)O1 [compound 2, asperentin]
inhibition at 100 µM [7]: 100%
minimum inhibitory concentration (MIC), five dermatophytes including Trichophyton rubrum [8]: 75 µg/mL (≈ 257 µM)
inhibition at 100 µM (Septoria tritici; Zymoseptoria tritici, read-out: inhibition of S. tritici in comparison to the positive control clotrimazole, concentration of 100 μM): 83%
activity against P. acnes (in words) (Propionibacterium acnes): did not show any activity
MIC, Arthrobacter citreus (Arthrobacter citreus): 1 µg/mL (≈ 3.42 µM)
activity against Botrytis cinerea (Botrytis cinerea): active
antibiotic activity against Bacillus subtilis [2]: did not exhibit; also recorded: not inhibited
cytotoxic effects against HT29 [4]: did not exhibit cytotoxic activities
inhibition of PTP1B enzymatic activity (in words) [5]: did not show any activity; also recorded: did not show any inhibition
growth inhibition, etiolated wheat coleoptile assay [9]: 81%
MIC, Bacillus brevis (Bacillus brevis): 0.05 µg/mL (≈ 0.171 µM)
activity against Colletotrichum gleosporoides [10]: active
antibiotic activity against Xanthomonas campestris (Xanthomonas campestris): did not exhibit
minimum inhibitory concentration (MIC), Rhizoctonia solani (Rhizoctonia solani): 75 µg/mL (≈ 257 µM)
antibiotic activity against Staphylococcus lentus [6]: did not exhibit
MIC, Sarcina lutea (Sarcina lutea): 2000 µg/mL (≈ 6840 µM)

C[C@H]1CCC[C@@H](C[C@H]2Cc3cc(O)cc(O)c3C(=O)O2)O1 [isoasperentin, reference compound]
growth inhibition, etiolated wheat coleoptile assay [9]: 100%

Cc1cc2cc(O)cc(O)c2c2oc(=O)cc(O)c12 [pannorin]
inhibition of GSK-3 β (in words) [11]: inhibitor

Cc1ccc(C(=O)Nc2ccc(S(=O)(=O)O)c3cc(S(=O)(=O)O)cc(S(=O)(=O)O)c23)cc1NC(=O)c1cccc(NC(=O)Nc2cccc(C(=O)Nc3cc(C(=O)Nc4ccc(S(=O)(=O)O)c5cc(S(=O)(=O)O)cc(S(=O)(=O)O)c45)ccc3C)c2)c1 [suramin]
IC50 (PTP1B [12]): 11 µM

Monoacetyl asperentin [reference compound]
MIC, four dermatophytes including Trichophyton rubrum [8]: 75 µg/mL
MIC, Micrococcus flavus (Micrococcus flavus): 75 µg/mL

brevianamide W
antioxidant activity [13]: antioxidant activity

dimethyl asperentin [reference compound]
MIC, Arthrobacter citreus (Arthrobacter citreus): > 100 µg/mL
MIC, Bacillus brevis (Bacillus brevis): 10 µg/mL
MIC, Sarcina lutea (Sarcina lutea): > 100 µg/mL
